Data on eight molecules can be found in patent US9951097B2, “Antibacterial compounds targeting isoprenoid biosynthesis” (priority 2012, dated 2018).

Converted amounts (≈) assume the structure as drawn. “Also recorded” adds a separate entry of the source. Read-outs that look alike come from different tables or passages of the source.

The subject of series [1] is synthetic DNA dodecamer duplex d(CGCGAATTCGCG)2. Kind of series: DNA binding by differential scanning calorimetry (DSC). (In general: Differential scanning calorimetry records heat flow against a reference as temperature is scanned.)
Series [2] concerns Mycobacterium tuberculosis.
Series [3] has as its system E. coli. Nature of the series: E. coli cell growth inhibition. The format is cell-based. As to conditions: for MIC90: Escherichia coli. On the procedure:
(§1) Methods. EcUPPS and SaUPPS were expressed and purified as described previously (Durrant et al., Chem Biol Drug Des 2011, 78(3):323-332). UPPS inhibition assays were carried out as described previously, and UPPS/inhibitor crystals were obtained via soaking as described previously (Guo et al., Proc Natl Acad Sci USA 2007, 104(24):10022-10027). Structure determinations and refinements were carried out as described below in Example 3. For the eleven structures reported, the resolution was on average 1.88 Å (±0.29 Å) and Rfree was on average 24.6% (±3.9%). Full synthesis and characterization details for all compounds investigated crystallographically are provided in Example 1 above. In vivo experiments used female BALB/c mice infected intraperitoneally with S. aureus (USA200), as described in detail in Example 3 below. Bacterial cell growth inhibition assays were carried out as described previously (Zhang et al., ACS Med Chem Lett 2012, 3(5):402-406).
(§2) Cell growth inhibition. The growth of S. aureus (USA300 strain) and determination of MIC values were as described previously (Molohon et al., ACS chemical biology 2011, 6(12):1307-1313). E. coli growth and construction of isobolograms were also carried out basically as described previously (Leon et al., J Med Chem 2006, 49(25):7331-7341).

Series [4] concerns the target T1, E. coli UPPS (Escherichia coli, UniProt P60472).
T1 construct: His-tag (cleaved yes); made in house; host or cells: E. coli BL21 (DE3)
Kind of series: E. coli UPPS inhibition assay. It counts as biochemical. How it is done:
as §1, with “For the eleven structures reported, the resolution was on average 1.88 Å (±0.29 Å) and Rfree was on average 24.6% (±3.9%).” left out
(§3) UPPS Inhibition Assays. E. coli UPPS and S. aureus UPPS inhibition assays were carried out as described previously (Durrant et al., Chem Biol Drug Des 2011, 78(3):323-332). […] The IC50 values were obtained by fitting the inhibition data to a standard rectangular hyperbolic dose-response function in GraphPad PRISM 4.0 software (Graphpad Software, San Diego, Calif.). […] IPP and 0.01% Triton X-100.

The target of series [5] is T2, S. aureus UPPS (Staphylococcus aureus, UniProt P60477).
T2 construct: His-tag (pET-32 Xa/LIC vector tag) (N, cleaved yes); made in house; host or cells: E. coli BL21 (DE3)
T2 sequence (P60477 1-256): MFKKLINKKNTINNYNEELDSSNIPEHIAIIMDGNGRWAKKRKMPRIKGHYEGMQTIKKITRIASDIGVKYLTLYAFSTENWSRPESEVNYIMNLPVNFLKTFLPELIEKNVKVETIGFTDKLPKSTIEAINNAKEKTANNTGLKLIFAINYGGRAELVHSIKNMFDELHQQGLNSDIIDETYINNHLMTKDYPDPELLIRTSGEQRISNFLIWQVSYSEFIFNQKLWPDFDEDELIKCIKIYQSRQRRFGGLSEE
Kind of series: biochemical. How it is done:
as §1, with “For the eleven structures reported, the resolution was on average 1.88 Å (±0.29 Å) and Rfree was on average 24.6% (±3.9%).” left out
as §3

Series [6] deals with S. aureus (USA300 strain). Nature of the series: S. aureus cell growth inhibition. It counts as cell-based. As to conditions: USA300, MRSA strain; for MIC90: Staphylococcus aureus. On the procedure:
as §1, §2

Series [7] deals with S. aureus USA200 Sanger 252 (MRSA) strain.
Series [8] deals with UPPS. Kind of series: UPPS inhibition, enzyme species not given. The format is biochemical. How it is done: as §1, with “For the eleven structures reported, the resolution was on average 1.88 Å (±0.29 Å) and Rfree was on average 24.6% (±3.9%).” left out
as §3

T1 sequence (P60472 whole entry): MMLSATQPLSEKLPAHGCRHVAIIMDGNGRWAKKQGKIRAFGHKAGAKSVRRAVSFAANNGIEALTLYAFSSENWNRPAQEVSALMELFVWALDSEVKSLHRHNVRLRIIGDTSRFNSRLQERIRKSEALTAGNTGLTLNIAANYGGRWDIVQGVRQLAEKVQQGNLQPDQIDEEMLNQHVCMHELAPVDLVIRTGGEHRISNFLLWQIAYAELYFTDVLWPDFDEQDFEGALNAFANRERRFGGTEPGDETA

With `O=C(Nc1cccc(C2=NCCCN2)c1)c1ccc(-c2ccc(C(=O)Nc3cccc(C4=NCCCN4)c3)cc2)cc1` [BPH-1503], the “DNA binding (in words)” value in series [1] is given as “binds to DNA; also recorded: strong DNA binding”. Further, the “shift in Tmax of DNA melting (DSC)” value in series [1] (1 mM DNA duplex, 1 mM compound) was ~10 °C. In addition, the “concentration inhibiting Mycobacterium tuberculosis” value in series [2] is 1 µM.
Turning to `O=P(O)(O)C(O)(Cc1cccc(-c2cccc3c2oc2ccccc23)c1)P(=O)(O)O` [Compound 5, reference compound], the “E. coli MIC90” value in series [3] is >32 mg/L. Besides, the results for the IC50 in series [4] (read-out: E. coli UPPS IC50) and in series [5] were 0.28 µM and 0.35 µM, respectively. Moreover, in series [6], the “S. aureus MIC90” value was >32 mg/L.
As usually defined, the MIC90 is an inhibitory concentration at the 90% level, which refers to growth in some studies and to a panel of isolates in others. Turning to `CCCCCCCCCCCCOc1cccc(O)c1C(=O)O` [Compound 11, (Dodecyloxy)-6-hydroxybenzoic acid], the MIC90 in series [3] is > 32 mg/L. Besides, the IC50 in series [4] is 2.2 µM; in series [5], 1.7 µM.
Consider `CCCCCCCCCCOc1cccc(C(=O)Nc2ccc([N+](=O)[O-])cc2C(=O)O)c1` [Compound 12, 2-(3-(Decyloxy)benzamido)-5-nitrobenzoic acid], for which the MIC90 in series [3] and in series [6] was > 32 mg/L throughout. Further, the values for the IC50 in series [4] and in series [5] were 3 µM and 0.49 µM, respectively.
For `CCCCCCCCOc1cccc(COc2ccc(Br)cc2P(=O)(O)O)c1` [Compound 13, (5-bromo-2-((3-(octyloxy)benzyl)oxy)phenyl)phosphonic acid], the MIC90 in series [3] was > 32 mg/L; in series [6], 32 mg/L (≈ 67.9 µM). The IC50 in series [4] was 0.92 µM; in series [5], 2.5 µM.
On the same counts, the results for `O=C(Nc1cccc(C2=NCCN2)c1)c1ccc(C(=O)Nc2cccc(C3=NCCN3)c2)c([N+](=O)[O-])c1` [Compound 16, N^1, N^4-bis(3-(4,5-dihydro-1H-imidazol-2-yl)phenyl)-2-nitroterephthalamide] are 8 mg/L (≈ 16.1 µM), > 32 mg/L, 4.8 µM and 4.9 µM.
For `O=C(Nc1cccc(C2=NCCN2)c1)c1ccc(-c2ccc(C(=O)Nc3cccc(C4=NCCN4)c3)cc2)cc1` [Compound 17, N^4, N^4′-bis(3-(4,5-dihydro-1H-imidazol-2-yl)phenyl)-[1,1′-biphenyl]-4,4′-dicarboxamide], the MIC90 in series [3] is 4 mg/L (≈ 7.57 µM); in series [6], 0.25 mg/L (≈ 0.473 µM). Also, the “adverse reactions in treated mice” value in series [7] (10 mg/kg intraperitoneally once daily, 3 doses) is on record as “no apparent adverse reactions”. Also, in series [7] (10 mg/kg intraperitoneally once daily, 3 doses, pooled results of 2 experiments), the mice survived was 20/20. In addition, the “activity in mouse model of infection (in words)” value in series [7] (10 mg/kg once daily, 3 doses total) is “clear therapeutic activity; also recorded: No mice in the group treated once daily with 10 mg/kg of 17 (3 doses total) died during either experiment”. Besides, the figures for the IC50 in series [8] (read-out: UPPS IC50) and in series [8] (read-out: UPPS inhibition) were 0.1 µM and ~0.1 µM, respectively. For the same molecule, in series [2], the “concentration inhibiting Mycobacterium tuberculosis” value was in the range of 0.4 to 0.5 µM.
Take `NCCc1cc(Br)cc(C#Cc2cccc(C#Cc3cc(Br)cc(CCN)c3)c2)c1` [Compound 18, 2,2′-((1,3-phenylenebis(ethyne-2,1-diyl))bis(3-bromo-5,1-phenylene))diethanamine]: the MIC90 in series [3] was 8 mg/L (≈ 15.3 µM); in series [6] it was > 32 mg/L. Besides, the results for the IC50 in series [4] (read-out: E. coli UPPS IC50) and in series [5] were 6.1 µM and 1.4 µM, respectively.
